{"source": "patent US20050124562A1", "about": "“Bis-quinazoline compounds for the treatment of bacterial infections” (priority 2003, published 2005)", "data": [{"system": "S. aureus, E. faecalis, S. pyogenes and S. pneumoniae", "experiment": "Broth microdilution MIC (NCCLS), gram-positive strains", "type": "cell-based", "conditions": "not given", "description": "(§1) Representative bis-quinazolines were tested for antibacterial activity using the […] microdilution method to determine their minimum inhibitory concentrations (MICs). All compounds were tested using standard methods in accordance with NCCLS guidelines (National Committee for Clinical Laboratory Standards. 2003. Methods for dilution antimicrobial susceptibility testing for bacteria that grow aerobically. Approved Standard M-7 A-6, NCCLS, Wayne, Pa.). The bacterial strains used in the susceptibility tests were obtained from the American Type Culture Collection (ATCC) and included resistant phenotypes such as oxacillin-resistant S. aureus (ORSA) and vancomycin-resistant enterococci (VRE). The minimum bactericidal concentrations (MBCs) were determined for selected organisms. The effect of protein binding on the antibacterial activity of representative bis-quinazolines were determined by conducting MIC tests in the presence of human serum.", "units": {"MIC": "µg/mL"}, "values": [{"smiles": "Cc1nc(Nc2nc(O)c3ccccc3n2)nc2cc3c(cc12)OCO3", "note": "[Example 15, 2-(8-Methyl-[1,3]dioxolo[4,5-g]quinazolin-6-ylamino)-quinazolin-4-ol]", "MIC": "0.06 to 16"}, {"smiles": "COc1cc2nc(Nc3nc(O)c4ccccc4n3)nc(C)c2cc1OC", "note": "[Example 52, 2-(6,7-Dimethoxy-4-methyl-quinazolin-2-ylamino)-quinazolin-4-ol]", "MIC": "0.06 to 16"}, {"smiles": "CCc1nc(Nc2nc(O)c3ccccc3n2)nc2ccc(OC)cc12", "note": "[Example 49, 2-(4-Ethyl-6-methoxy-quinazolin-2-ylamino)-quinazolin-4-ol]", "MIC": "0.06 to 16"}, {"smiles": "COc1cccc2c(O)nc(Nc3nc(C)c4ccc5c(c4n3)OCCO5)nc12", "note": "[Example 82, 8-Methoxy-2-(8-methyl-2,3-dihydro-1,4-dioxa-5,7-diaza-phenanthren-6-ylamino)-quinazolin-4-ol]", "MIC": "0.06 to 16"}, {"smiles": "COc1ccc2nc(Nc3nc(O)c4cc(O)ccc4n3)nc(C)c2c1", "note": "[Example 60, 2-(6-Methoxy-4-methyl-quinazolin-2-ylamino)-quinazoline-4,6-diol]", "MIC": "0.06 to 16"}, {"smiles": "COc1cccc2c(C)nc(Nc3nc(O)c4cccc(C)c4n3)nc12", "note": "[Example 51, 2-(8-Methoxy-4-methyl-quinazolin-2-ylamino)-8-methyl-quinazolin-4-ol]", "MIC": "0.06 to 16"}, {"smiles": "COc1cccc2c(C)nc(Nc3nc(O)c4cc(C)cc(C)c4n3)nc12", "note": "[Example 48, 2-(8-Methoxy-4-methyl-quinazolin-2-ylamino)-6,8-dimethyl-quinazolin-4-ol]", "MIC": "0.06 to 16"}]}, {"system": "S. aureus, E. faecalis, S. pyogenes and S. pneumoniae", "experiment": "Broth microdilution MIC (NCCLS), gram-positive strains", "type": "cell-based", "conditions": "range against some strains of S. aureus, E. faecalis, S. pyogenes and S. pneumoniae; read-out: MIC", "description": "as §1", "units": {"MIC": "µg/mL"}, "values": [{"smiles": "COc1cc(OC)c2nc(Nc3nc(O)c4cc([N+](=O)[O-])cc(C)c4n3)nc(C)c2c1.O=C(O)C(F)(F)F", "note": "[Example 67, 2-(6,8-Dimethoxy-4-methyl-quinazolin-2-ylamino)-8-methyl-6-nitro-quinazolin-4-ol trifluoroacetate salt]", "MIC": "0.06 to 16"}, {"smiles": "CCN(CCO)CCOc1ccc2nc(Nc3nc(C)c4cc(OC)cc(OC)c4n3)nc(O)c2c1.O=C(O)C(F)(F)F", "note": "[Example 167, 2-(6,8-Dimethoxy-4-methyl-quinazolin-2-ylamino)-6-{2-[ethyl-(2-hydroxy-ethyl)-amino]-ethoxy}-quinazolin-4-ol trifluoroacetate salt]", "MIC": "0.06 to 16"}, {"smiles": "COc1cc2nc(Nc3nc(O)c4cc(OCCCl)ccc4n3)nc(C)c2cc1OC.O=C(O)C(F)(F)F", "note": "[Example 105, 6-(2-Chloro-ethoxy)-2-(6,7-dimethoxy-4-methyl-quinazolin-2-ylamino)-quinazolin-4-ol trifluoroacetate salt]", "MIC": "0.06 to 16"}, {"smiles": "COc1cc2nc(Nc3nc(O)c4cc(C)cc(C)c4n3)nc(C)c2cc1OC.O=C(O)C(F)(F)F", "note": "[Example 41, 2-(6,7-Dimethoxy-4-methyl-quinazolin-2-ylamino)-6,8-dimethyl-quinazolin-4-ol trifluoroacetate salt]", "MIC": "0.06 to 16"}, {"smiles": "COc1c(F)ccc2c(C)nc(Nc3nc(O)c4cccc(F)c4n3)nc12.O=C(O)C(F)(F)F", "note": "[Example 119, 8-Fluoro-2-(7-fluoro-8-methoxy-4-methyl-quinazolin-2-ylamino)-quinazolin-4-ol trifluoroacetate salt]", "MIC": "0.06 to 16"}, {"smiles": "COc1ccc([N+](=O)[O-])c2c(C)nc(Nc3nc(O)c4cc(C)cc(C)c4n3)nc12.O=C(O)C(F)(F)F", "note": "[Example 30, 2-(8-Methoxy-4-methyl-5-nitro-quinazolin-2-ylamino)-6,8-dimethyl-quinazolin-4-ol, trifluoroacetate salt]", "MIC": "0.06 to 16"}, {"smiles": "COc1cc2nc(Nc3nc(O)c4cc(OCCNCCc5ccncc5)ccc4n3)nc(C)c2cc1OC.O=C(O)C(F)(F)F", "note": "[Example 183, 2-(6,7-Dimethoxy-4-methyl-quinazolin-2-ylamino)-6-[2-(2-pyridin-4-yl-ethylamino)-ethoxy]-quinazolin-4-ol TFA salt]", "MIC": "0.06 to 16"}, {"smiles": "COc1cc(OC)c2nc(Nc3nc(O)c4cc(OCCO)ccc4n3)nc(C)c2c1.O=C(O)C(F)(F)F", "note": "[Example 137, 2-(6,8-Dimethoxy-4-methyl-quinazolin-2-ylamino)-6-(2-hydroxy-ethoxy)-quinazolin-4-ol trifluoroacetate salt]", "MIC": "0.06 to 16"}, {"smiles": "COc1cc2c(C)nc(Nc3nc(O)c4cccc(OC)c4n3)nc2cc1N.O=C(O)C(F)(F)F", "note": "[Example 76, 2-(6-methoxy-7-amino-4-methyl-quinazolin-2-ylamino)-8-methoxy-quinazolin-4-ol trifluoroacetate salt]", "MIC": "0.06 to 16"}, {"smiles": "COc1cccc2c(C)nc(Nc3nc(O)c4cccc(O)c4n3)nc12.O=C(O)C(F)(F)F", "note": "[Example 72, 2-(8-Methoxy-4-methyl-quinazolin-2-ylamino)-quinazoline-4,8-diol trifluoroacetate salt]", "MIC": "0.06 to 16"}, {"smiles": "COCCOc1ccc2nc(Nc3nc(O)c4cc(N)cc(C)c4n3)nc(C)c2c1.O=C(O)C(F)(F)F", "note": "[Example 70, 6-Amino-2-[6-(2-methoxy-ethoxy)-4-methyl-quinazolin-2-ylamino]-8-methyl-quinazolin-4-ol trifluoroacetate salt]", "MIC": "0.06 to 16"}, {"smiles": "COc1cc(OC)c2nc(Nc3nc(O)c4cc(N)cc(C)c4n3)nc(C)c2c1.O=C(O)C(F)(F)F", "note": "[Example 126, 6-Amino-2-(6,8-dimethoxy-4-methyl-quinazolin-2-ylamino)-8-methyl-quinazolin-4-ol trifluoroacetate salt]", "MIC": "0.06 to 16"}, {"smiles": "COc1cc2nc(Nc3nc(O)c4cc(OCCNNCCO)ccc4n3)nc(C)c2cc1OC.O=C(O)C(F)(F)F", "note": "[Example 176, 2-(6,7-Dimethoxy-4-methyl-quinazolin-2-ylamino)-6-{2-[N′-(2-hydroxy-ethyl)-hydrazino]-ethoxy}-quinazolin-4-ol trifluoroacetate salt]", "MIC": "0.06 to 16"}, {"smiles": "COc1cc(OC)c2nc(Nc3nc(O)c4c(OC)ccc(OC)c4n3)nc(C)c2c1.O=C(O)C(F)(F)F", "note": "[Example 100, 2-(6,8-Dimethoxy-4-methyl-quinazolin-2-ylamino)-5,8-dimethoxy-quinazolin-4-ol trifluoroacetate salt]", "MIC": "0.06 to 16"}, {"smiles": "CCOc1cccc2nc(Nc3nc(C)c4cc(OC)cc(OC)c4n3)nc(O)c12.O=C(O)C(F)(F)F", "note": "[Example 112, 2-(6,8-Dimethoxy-4-methyl-quinazolin-2-ylamino)-5-ethoxy-quinazolin-4-ol trifluoroacetate salt]", "MIC": "0.06 to 16"}, {"smiles": "COc1ccc2nc(Nc3nc(O)c4cccc(O)c4n3)nc(C)c2c1.O=C(O)C(F)(F)F", "note": "[Example 71, 2-(6-Methoxy-4-methyl-quinazolin-2-ylamino)-quinazoline-4,8-diol trifluoroacetate salt]", "MIC": "0.06 to 16"}, {"smiles": "CC(=O)O.COc1cc2c(C)nc(Nc3nc(O)c4cc(C)cc(C)c4n3)nc2cc1F", "note": "[Example 44, 2-(7-Fluoro-6-methoxy-4-methyl-quinazolin-2-ylamino)-6,8-dimethyl-quinazolin-4-ol acetate salt]", "MIC": "0.06 to 16"}, {"smiles": "COc1cc2nc(Nc3nc(O)c4cc(OCCNCCOCCO)ccc4n3)nc(C)c2cc1OC.O=C(O)C(F)(F)F", "note": "[Example 179, 2-(6,7-Dimethoxy-4-methyl-quinazolin-2-ylamino)-6-{2-[2-(2-hydroxy-ethoxy)-ethylamino]-ethoxy}-quinazolin-4-ol trifluoroacetate salt]", "MIC": "0.06 to 16"}, {"smiles": "COc1cc2nc(Nc3nc(O)c4cc(OCCN(C)CCO)ccc4n3)nc(C)c2cc1OC.O=C(O)C(F)(F)F", "note": "[Example 139, 2-(6,7-Dimethoxy-4-methyl-quinazolin-2-ylamino)-6-{2-[(2-hydroxy-ethyl)-methyl-amino]-ethoxy}-quinazolin-4-ol trifluoroacetate salt]", "MIC": "0.06 to 16"}, {"smiles": "COc1ccc(OC)c2c(C)nc(Nc3nc(O)c4ccccc4n3)nc12.O=C(O)C(F)(F)F", "note": "[Example 27, 2-(5,8-Dimethoxy-4-methyl-quinazolin-2-ylamino)-quinazolin-4-ol trifluoroacetate salt]", "MIC": "0.06 to 16"}, {"smiles": "COCCOc1cc(OC)cc2c(C)nc(Nc3nc(O)c4cccc(OC)c4n3)nc12.O=C(O)C(F)(F)F", "note": "[Example 79, 8-Methoxy-2-[6-methoxy-8-(2-methoxy-ethoxy)-4-methyl-quinazolin-2-ylamino]-quinazolin-4-ol trifluoroacetate salt]", "MIC": "0.06 to 16"}, {"smiles": "COc1cc2nc(Nc3nc(O)c4cc(OCCN5CCCC5CN5CCCC5)ccc4n3)nc(C)c2cc1OC.O=C(O)C(F)(F)F", "note": "(stereo not drawn) [Example 180, 2-(6,7-Dimethoxy-4-methyl-quinazolin-2-ylamino)-6-[2-(2-pyrrolidin-1-ylmethyl-pyrrolidin-1-yl)-ethoxy]-quinazolin-4-ol trifluoroacetate salt]", "MIC": "0.06 to 16"}, {"smiles": "COc1cc(OC)c2nc(Nc3nc(O)c4c5c(ccc4n3)OCO5)nc(C)c2c1.O=C(O)C(F)(F)F", "note": "[Example 130, 7-(6,8-Dimethoxy-4-methyl-quinazolin-2-ylamino)-1,3-dioxa-6,8-diaza-cyclopenta[a]naphthalen-9-ol trifluoroacetate salt]", "MIC": "0.06 to 16"}, {"smiles": "COc1ccc([N+](=O)[O-])c2c(C)nc(Nc3nc(O)c4ccccc4n3)nc12.O=C(O)C(F)(F)F", "note": "[Example 26, 2-(8-Methoxy-4-methyl-5-nitro-quinazolin-2-ylamino)-quinazolin-4-ol trifluoroacetate salt]", "MIC": "0.06 to 16"}, {"smiles": "COc1cc(OC)c2nc(Nc3nc(O)c4c(OC(C)C)cccc4n3)nc(C)c2c1.O=C(O)C(F)(F)F", "note": "[Example 111, 2-(6,8-Dimethoxy-4-methyl-quinazolin-2-ylamino)-5-isopropoxy-quinazolin-4-ol trifluoroacetate salt]", "MIC": "0.06 to 16"}, {"smiles": "COc1cc(OC)c2nc(Nc3nc(O)c4cc(OCCN5CCOCC5)ccc4n3)nc(C)c2c1.O=C(O)C(F)(F)F", "note": "[Example 141, 2-(6,8-Dimethoxy-4-methyl-quinazolin-2-ylamino)-6-(2-morpholin-4-yl-ethoxy)-quinazolin-4-ol trifluoroacetate salt]", "MIC": "0.06 to 16"}]}]}
